Drawing on PubChem BioAssay (NCI), this text covers GI50 and TGI for eight molecules.

The structures appear in SMILES notation.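 Following 48 hours of exposure in 96-well plates, responses at five concentrations were used to interpolate endpoints linearly. GI50 is the concentration that inhibits growth by half. TGI: concentration producing complete growth inhibition.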

Some test systems named below: SK-MEL-2 melanoma; HOP-92 NSCLC; CAKI-1 renal; MDA-MB-435; SK-MEL-28 melanoma; SF-539 CNS; HT29 colon; COLO 205 colon; TK-10 renal; PC-3 prostate.
What all share (assay): NCI anticancer screen, dose series, 48 h

With `Nc1nc(/C=C\c2ccc([N+](=O)[O-])s2)nc(N2CCN(c3ccccc3)CC2)n1`, the GI50 in the experiment on SK-MEL-2 melanoma was 21.2 µM; with HOP-92 NSCLC, 22.8 µM; in the experiment on CAKI-1 renal, 18.1 µM; in the experiment with MDA-MB-435, 19.2 µM; in the experiment on SK-MEL-28 melanoma, 24.9 µM; in the experiment with SF-539 CNS, 40.9 µM. Moreover, the GI50 in the experiment with HT29 colon was 27.5 µM; in the experiment with COLO 205 colon, 15.4 µM; in the experiment with TK-10 renal, 72.1 µM; in the experiment with PC-3 prostate it was 21.9 µM. For the same molecule, the TGI in the experiment with SK-MEL-2 melanoma is 48.5 µM; in the experiment on HOP-92 NSCLC, 57.1 µM; with CAKI-1 renal, 39.1 µM; with MDA-MB-435, 43.6 µM; in the experiment with SK-MEL-28 melanoma, 47.1 µM; in the experiment with SF-539 CNS, more than 100 µM. The TGI in the experiment with HT29 colon is 70.4 µM; with COLO 205 colon, 32.1 µM; in the experiment on TK-10 renal it was more than 100 µM; in the experiment with PC-3 prostate, 63.7 µM.
As for `Cc1cnc2n1S(=O)(=O)c1cc(C(=O)Nc3cccc4nsnc34)c(Cl)cc1S2`, the GI50 with SK-MEL-2 melanoma is 44.2 µM; in the experiment with HOP-92 NSCLC, 18.3 µM; with CAKI-1 renal, 16.8 µM; in the experiment on MDA-MB-435, 22.4 µM; with SK-MEL-28 melanoma, 19.8 µM; with SF-539 CNS, 23.4 µM. Further, the GI50 with HT29 colon was 32.3 µM; in the experiment with COLO 205 colon it was 23 µM; in the experiment on TK-10 renal it was 19.8 µM; in the experiment with PC-3 prostate, 20.1 µM. Further, the TGI was more than 100 µM in the experiment with SK-MEL-2 melanoma; 50.4 µM in the experiment with HOP-92 NSCLC; 30.9 µM in the experiment with CAKI-1 renal; 56.5 µM in the experiment on MDA-MB-435; 42.6 µM in the experiment on SK-MEL-28 melanoma; 50.2 µM in the experiment on SF-539 CNS. The TGI worked out at 93.8 µM with HT29 colon, 54.6 µM in the experiment with COLO 205 colon, 40 µM in the experiment on TK-10 renal and 38.9 µM in the experiment with PC-3 prostate.
As for `COc1c/c(=C2\C=c3ccccc3=N2)[nH]/c1=C\c1[nH]c(C)cc1C`, the GI50 was 0.0753 µM with SK-MEL-2 melanoma; 0.111 µM with HOP-92 NSCLC; less than 0.0103 µM in the experiment on CAKI-1 renal; 0.0136 µM with MDA-MB-435; 0.103 µM with SK-MEL-28 melanoma; 0.0466 µM in the experiment with SF-539 CNS. The GI50 in the experiment with HT29 colon was less than 0.01 µM; in the experiment with COLO 205 colon it was 0.0155 µM; in the experiment with TK-10 renal it was 0.106 µM; in the experiment on PC-3 prostate, 0.12 µM. Further, the TGI came out at 2.27 µM in the experiment on SK-MEL-2 melanoma; 1.97 µM with HOP-92 NSCLC; 0.109 µM with CAKI-1 renal; 0.0951 µM with MDA-MB-435; 26.3 µM in the experiment on SK-MEL-28 melanoma; 4.19 µM with SF-539 CNS. Moreover, the TGI was more than 100 µM with HT29 colon, 13.6 µM with COLO 205 colon, 36.7 µM with TK-10 renal and 31.3 µM in the experiment with PC-3 prostate.
Turning to `O=C(O)CCNCC(=O)O`, the TGI in the experiment on SK-MEL-2 melanoma, with HOP-92 NSCLC, with CAKI-1 renal, in the experiment on MDA-MB-435, with SK-MEL-28 melanoma and in the experiment on SF-539 CNS was more than 100 µM in each case. In addition, the TGI in the experiment with HT29 colon, with COLO 205 colon, with TK-10 renal and with PC-3 prostate was more than 100 µM in each case.
On to `Cc1c(-c2cnccn2)ssc1=S`, for which the TGI is more than 100 µM in the experiment with SK-MEL-2 melanoma; 89.7 µM in the experiment with HOP-92 NSCLC; more than 100 µM in the experiment on CAKI-1 renal; more than 100 µM in the experiment with MDA-MB-435; more than 100 µM with SK-MEL-28 melanoma; more than 100 µM with SF-539 CNS. The TGI with HT29 colon was more than 100 µM; in the experiment on COLO 205 colon it was more than 100 µM; in the experiment with TK-10 renal, 98.7 µM; in the experiment on PC-3 prostate, more than 100 µM.
Consider `CCOC(=O)C1=CCCC[C@H]1S(=O)(=O)Nc1ccc(F)cc1Cl`, for which the GI50 is 21 µM with SK-MEL-2 melanoma; 15.1 µM in the experiment on HOP-92 NSCLC; 31.5 µM in the experiment with CAKI-1 renal; 21.1 µM in the experiment with MDA-MB-435; 28 µM with SK-MEL-28 melanoma; 22.8 µM with SF-539 CNS. Moreover, the GI50 in the experiment with HT29 colon is 41.1 µM; with COLO 205 colon, 38.2 µM; in the experiment with TK-10 renal it was 33 µM; in the experiment with PC-3 prostate, 34 µM. The TGI in the experiment on SK-MEL-2 melanoma was 83.8 µM; in the experiment with HOP-92 NSCLC, 58.3 µM; with CAKI-1 renal, more than 100 µM; with MDA-MB-435, 69.9 µM; in the experiment with SK-MEL-28 melanoma, more than 100 µM; in the experiment on SF-539 CNS, 55.2 µM. Moreover, the TGI in the experiment with HT29 colon, in the experiment on COLO 205 colon, in the experiment with TK-10 renal and with PC-3 prostate was more than 100 µM in each case.
Turning to `O=c1c2ccccc2sc2c(NCCCNCCO)nc3ccccc3c12`, the GI50 with SK-MEL-2 melanoma is 1.87 µM; with HOP-92 NSCLC, 0.922 µM; in the experiment on CAKI-1 renal, 1.6 µM; in the experiment with MDA-MB-435 it was 1.77 µM; in the experiment with SK-MEL-28 melanoma, 1.81 µM; with SF-539 CNS, 1.65 µM. Moreover, the GI50 is 1.51 µM in the experiment with HT29 colon, 1.47 µM in the experiment with COLO 205 colon, 1.91 µM in the experiment with TK-10 renal and 1.49 µM with PC-3 prostate. The TGI in the experiment on SK-MEL-2 melanoma was found to be 3.62 µM; in the experiment on HOP-92 NSCLC it was 5.67 µM; in the experiment on CAKI-1 renal it was 3.2 µM; in the experiment on MDA-MB-435, 3.25 µM; in the experiment with SK-MEL-28 melanoma, 3.52 µM; in the experiment on SF-539 CNS it was 3.23 µM. The TGI with HT29 colon was determined as 2.97 µM; in the experiment on COLO 205 colon, 3.23 µM; in the experiment on TK-10 renal, 3.38 µM; with PC-3 prostate, 2.98 µM.
For `CC(C)(C)C(=O)OCOP(=O)(NCc1ccccc1)C1CCCN(O)C1=O` (stereo not given), the GI50 in the experiment with SK-MEL-2 melanoma was 2.85 µM; in the experiment on HOP-92 NSCLC, 1.06 µM; with CAKI-1 renal it was 3.5 µM; in the experiment with MDA-MB-435, 4.09 µM; with SK-MEL-28 melanoma, 1.74 µM; in the experiment on SF-539 CNS, 3.2 µM. The GI50 is 3.35 µM with HT29 colon, 2.47 µM with COLO 205 colon, 3.12 µM with TK-10 renal and 5.08 µM in the experiment with PC-3 prostate. Moreover, the TGI in the experiment with SK-MEL-2 melanoma was 15.6 µM; with HOP-92 NSCLC, 7.72 µM; in the experiment on CAKI-1 renal, more than 100 µM; in the experiment on MDA-MB-435, 71.9 µM; in the experiment with SK-MEL-28 melanoma it was 5.68 µM; in the experiment on SF-539 CNS it was 16.5 µM. Further, the TGI in the experiment with HT29 colon was 61.9 µM; in the experiment with COLO 205 colon it was 13.7 µM; in the experiment with TK-10 renal, 43.2 µM; with PC-3 prostate, more than 100 µM.
